Measurements published in patent publication US9227970B2, “Triazolopyridine compounds” (Hoffmann-La Roche Inc., priority 2011, dated 2016).

Columns and labels:
[1] = biological target: human PDE10A (Homo sapiens (Human), UniProt Q9Y233); assay: human PDE10A full length Scintillation Proximity Assay (SPA); format: biochemical; settings: 50 nM cGMP + 50 nM [3H]-cGMP, 20 minutes at room temperature, read-out: PDE10A inhibition IC50
Experimental: The following test was carried out in order to determine the activity of the compounds of the present invention. […] The human PDE10A full length assay was performed in 96-well micro titer plates. […] A range of concentrations of the potential inhibitor was used to generate data for calculating the concentration of inhibitor resulting in 50% of the effect (e.g. […] Non-specific activity was tested without the enzyme. The reaction was initiated by the addition of the substrate solution (cGMP and [^3H]-cGMP) and allowed to progress for 20 minutes at room temperature. The reaction was terminated by adding 25 μl of YSi-SPA scintillation beads (GE Healthcare, cat. # RPNQ0150) in 18 mM zinc sulphate solution (stop reagent). […] Afterwards, radioactive counts were measured on a Perkin Elmer Top-Count Scintillation plate reader.

[2] = tested on: Salmonella; assay: Ames test (downscaled preincubation version); format: cell-based; settings: downscaled standard preincubation Ames test
Experimental: Ames Test was performed as a downscaled version of the standard preincubation Ames test and adapted from the method described by Kado et al. with some modifications e.g. Maron. D. M. and B. N. Ames (1983). Revised methods for the Salmonella mutagenicity test. Mutation Research, 113, 173-215. N. Y. Kado, D. Langley and E. Eisenstadt A simple modification of the Salmonella liquid-incubation assay. Increased sensitivity for detecting mutagens in human urine, Mutat Res 121 (1983) 25-32.

Chain of human PDE10A (Q9Y233 other isoform, or with tags, fused parts or gaps): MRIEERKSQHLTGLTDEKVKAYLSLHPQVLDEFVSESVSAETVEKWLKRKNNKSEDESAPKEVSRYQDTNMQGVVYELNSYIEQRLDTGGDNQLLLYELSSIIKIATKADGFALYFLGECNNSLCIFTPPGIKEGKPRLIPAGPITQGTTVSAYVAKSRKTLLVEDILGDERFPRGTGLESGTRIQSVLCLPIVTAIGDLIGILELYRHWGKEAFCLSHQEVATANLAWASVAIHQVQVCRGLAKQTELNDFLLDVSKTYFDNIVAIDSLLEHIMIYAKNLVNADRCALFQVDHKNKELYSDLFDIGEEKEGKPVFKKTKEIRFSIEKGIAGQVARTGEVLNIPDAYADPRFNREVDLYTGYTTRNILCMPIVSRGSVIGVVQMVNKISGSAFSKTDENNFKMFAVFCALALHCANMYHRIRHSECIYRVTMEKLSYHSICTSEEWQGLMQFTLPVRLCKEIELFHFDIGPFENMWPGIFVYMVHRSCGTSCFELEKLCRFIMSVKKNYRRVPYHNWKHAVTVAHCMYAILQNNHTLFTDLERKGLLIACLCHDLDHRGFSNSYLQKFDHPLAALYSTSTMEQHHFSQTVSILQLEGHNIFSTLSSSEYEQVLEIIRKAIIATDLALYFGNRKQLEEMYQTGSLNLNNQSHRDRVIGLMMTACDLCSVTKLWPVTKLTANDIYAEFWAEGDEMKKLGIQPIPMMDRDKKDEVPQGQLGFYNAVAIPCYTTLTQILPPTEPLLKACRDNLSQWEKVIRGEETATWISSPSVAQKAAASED

Row | SMILES | IC50 [1] [nM] | melting point [°C] | Ames test [2]
1 | Cn1ncc(C(=O)O)c1C(=O)Nc1ccc2nc(-c3ccccc3)nn2c1 [Example 1, 1-Methyl-5-(2-phenyl-[1,2,4]triazolo[1,5-a]pyridin-6-ylcarbamoyl)-1H-pyrazole-4-carboxylic acid] | 47.3 | 259 | 
2 | CN(C(=O)c1cnn(C)c1C(=O)Nc1ccc2nc(N3CCOCC3)nn2c1)C1CC1 [Example 18, 2-Methyl-2H-pyrazole-3,4-dicarboxylic acid 4-(cyclopropyl-methyl-amide) 3-[(2-morpholin-4-yl-[1,2,4]triazolo[1,5-a]pyridin-6-yl)-amide]] | 7.2 | 172 | 
3 | CN(C(=O)c1cnn(C)c1C(=O)Nc1ccc2nc(-c3cccnc3)nn2c1)C1CC1 [Example 11, N4-Cyclopropyl-N4,1-dimethyl-N5-(2-(pyridin-3-yl)-[1,2,4]triazolo[1,5-a]pyridin-6-yl)-1H-pyrazole-4,5-dicarboxamide] | 6.7 | 237 | negative
4 | Cn1ncc(C(=O)N2CCCC2)c1C(=O)Nc1ccc2nc(-c3ccccc3)nn2c1 [Example 2, 2-Methyl-4-(pyrrolidine-1-carbonyl)-2H-pyrazole-3-carboxylic acid (2-phenyl-[1,2,4]triazolo[1,5-a]pyridin-6-yl)-amide] | 1.2 | 210 | 
5 | Cn1ncc(C(=O)N2CCCC2)c1C(=O)Nc1ccc2nc(N3CCOCC3)nn2c1 [Example 13, 2-Methyl-4-(pyrrolidine-1-carbonyl)-2H-pyrazole-3-carboxylic acid (2-morpholin-4-yl-[1,2,4]triazolo[1,5-a]pyridin-6-yl)-amide] | 15.4 | 185 | 
6 | Cn1ncc(C(=O)N2CCOCC2)c1C(=O)Nc1ccc2nc(-c3cccnc3)nn2c1 [Example 9, 2-Methyl-4-(morpholine-4-carbonyl)-2H-pyrazole-3-carboxylic acid (2-pyridin-3-yl-[1,2,4]triazolo[1,5-a]pyridin-6-yl)-amide] | 13.2 | 229 | 
7 | CN(C(=O)c1cnn(C)c1C(=O)Nc1ccc2nc(-c3ccccc3)nn2c1)C1CC1 [Example 8, 2-Methyl-2H-pyrazole-3,4-dicarboxylic acid 4-(cyclopropyl-methyl-amide) 3-[(2-phenyl-[1,2,4]triazolo[1,5-a]pyridin-6-yl)-amide]] | 0.9 | 106 | 
8 | Cn1ncc(C(=O)N2CCC2)c1C(=O)Nc1ccc2nc(N3CCOCC3)nn2c1 [Example 15] |  |  | negative
9 | Cn1ncc(C(=O)N2CCOCC2)c1C(=O)Nc1ccc2nc(-c3ccccc3)nn2c1 [Example 5, 1-Methyl-4-(morpholine-4-carbonyl)-N-(2-phenyl-[1,2,4]triazolo[1,5-a]pyridin-6-yl)-1H-pyrazole-5-carboxamide] | 2.5 | 183 to 185 | negative
10 | CN(C)c1nc2ccc(NC(=O)c3c(C(=O)N4CCOCC4)cnn3C)cn2n1 [Example 19, 2-Methyl-4-(morpholine-4-carbonyl)-2H-pyrazole-3-carboxylic acid (2-dimethylamino-[1,2,4]triazolo[1,5-a]pyridin-6-yl)-amide] | 36 |  | negative
11 | Cn1ncc(C(=O)N2CCC2)c1C(=O)Nc1ccc2nc(-c3ccccc3)nn2c1 [Example 3, 4-(Azetidine-1-carbonyl)-2-methyl-2H-pyrazole-3-carboxylic acid (2-phenyl-[1,2,4]triazolo[1,5-a]pyridin-6-yl)-amide] | 0.6 | 235 to 236 | negative
12 | Cn1ncc(C(=O)N2CC(F)C2)c1C(=O)Nc1ccc2nc(-c3ccccc3)nn2c1 [Example 6, 4-(3-Fluoro-azetidine-1-carbonyl)-2-methyl-2H-pyrazole-3-carboxylic acid (2-phenyl-[1,2,4]triazolo[1,5-a]pyridin-6-yl)-amide] | 1.5 | 243 | 
13 | Cn1ncc(C(=O)N2CCCC2)c1C(=O)Nc1ccc2nc(-c3cccnc3)nn2c1 [Example 12, 1-Methyl-N-(2-(pyridin-3-yl)-[1,2,4]triazolo[1,5-a]pyridin-6-yl)-4-(pyrrolidine-1-carbonyl)-1H-pyrazole-5-carboxamide] | 17.9 | 251 | 
14 | Cn1ncc(C(=O)N2CCC2)c1C(=O)Nc1ccc2nc(-c3cccnc3)nn2c1 [Example 10, 4-(Azetidine-1-carbonyl)-1-methyl-N-(2-(pyridin-3-yl)-[1,2,4]triazolo[1,5-a]pyridin-6-yl)-1H-pyrazole-5-carboxamide] | 43.6 | 272 | 
15 | CN(C)c1nc2ccc(NC(=O)c3c(C(=O)N4CCC4)cnn3C)cn2n1 [Example 20, 4-(Azetidine-1-carbonyl)-2-methyl-2H-pyrazole-3-carboxylic acid (2-dimethylamino-[1,2,4]triazolo[1,5-a]pyridin-6-yl)-amide] | 8.2 |  | negative
